Laboratory results published in patent US20260347364A1, “PYRAZOLO[4,3-F]QUINAZOLINE DERIVATIVES AS MODULATORS OF G12D MUTANT KRAS USEFUL FOR THE TREATMENT OF CANCER” (JAZZ PHARMACEUTICALS IRELAND LTD., priority 2023, published 2026).

How the values were obtained:
KRAS G12D = molecular target: T1, KRAS G12D (Homo sapiens, UniProt P01116, G12D); assay: HTRF nucleotide exchange assay, KRAS G12D; assay type: biochemical; conditions: class symbols; for IC50: HTRF nucleotide exchange assay (NEA)
T1 construct: aa1-188 KRAS WT, HRAS WT, NRAS WT, or KRAS containing the G12D

KRAS WT = molecular target: T2, KRAS WT (Homo sapiens, UniProt P01116); assay: HTRF nucleotide exchange assay, KRAS WT; assay type: biochemical; conditions: class symbols; for IC50: HTRF nucleotide exchange assay (NEA)
T2 construct: aa1-188 KRAS WT

IC50 (KRAS G12D) | IC50 (KRAS WT) | KRAS^G12D NEA (KRAS G12D) | KRAS^WT NEA (KRAS WT) | SMILES
≤ 0.01 µM | ≤ 0.01 µM |  |  | C=Cc1c(F)ccc2cc(O)cc(-c3c(C)c4nc(OC[C@@]56CCCN5C[C@H](F)C6)nc(N5CCCn6nc(C(=O)N(C)C)cc6C5)c4c4cn(C)nc34)c12 [Example 98, 5-[4-(7-fluoro-3-hydroxy-8-vinyl-1-naphthyl)-2,5-dimethyl-7-[[(2R,8S)-2-fluoro-1,2,3,5,6,7-hexahydropyrrolizin-8-yl]methoxy]pyrazolo[4,3-f]quinazolin-9-yl]-N,N-dimethyl-4,6,7,8-tetrahydropyrazolo[1,5-a][1,4]diazepine-2-carboxamide]
≤ 0.01 µM | ≤ 0.01 µM |  |  | CCc1c(F)ccc2cc(O)cc(-c3c(F)c4nc(OCC5(CN6CC7CCC(C6)O7)CC5)nc(N5CCOCC(C)(O)C5)c4c4cn(C)nc34)c12 (stereo not shown) [Example 217, 4-[4-(8-ethyl-7-fluoro-3-hydroxy-1-naphthyl)-5-fluoro-2-methyl-7-[[1-(8-oxa-3-azabicyclo[3.2.1]octan-3-ylmethyl)cyclopropyl]methoxy]pyrazolo[4,3-f]quinazolin-9-yl]-6-methyl-1,4-oxazepan-6-ol]
≤ 0.01 µM | ≤ 0.01 µM |  |  | CCc1c(F)ccc2cc(O)cc(-c3c(F)c4nc(OC[C@]5(C)CCCN5)nc(N5CCOCC(C)(O)C5)c4c4cn(C)nc34)c12 (stereo partly drawn) [Example 159, 4-[4-(8-ethyl-7-fluoro-3-hydroxy-1-naphthyl)-5-fluoro-2-methyl-7-[[(2S)-2-methylpyrrolidin-2-yl]methoxy]pyrazolo[4,3-f]quinazolin-9-yl]-6-methyl-1,4-oxazepan-6-ol]
≤ 0.01 µM | 0.01 to 0.1 µM |  |  | CCc1c(F)ccc2cc(O)cc(-c3cc4nc(OC[C@@]56CCCN5C[C@H](F)C6)nc(N5CCCn6nc(CN(C)C)cc6C5)c4c4cn(C)nc34)c12 [Example 102, 4-[9-[2-[(dimethylamino)methyl]-4,6,7,8-tetrahydropyrazolo[1,5-a][1,4]diazepin-5-yl]-2-methyl-7-[[(2R,8S)-2-fluoro-1,2,3,5,6,7-hexahydropyrrolizin-8-yl]methoxy]pyrazolo[4,3-f]quinazolin-4-yl]-5-ethyl-6-fluoro-naphthalen-2-ol]
≤ 0.01 µM | 0.01 to 0.1 µM |  |  | CCc1c(F)ccc2cc(O)cc(-c3c(F)c4nc(OCC5(C#N)CCOC5)nc(N5CCCn6nc(C(=O)N(C)C)cc6C5)c4c4cn(C)nc34)c12 (stereo not shown) [Example 207, 5-[7-[(3-cyanotetrahydrofuran-3-yl)methoxy]-4-(8-ethyl-7-fluoro-3-hydroxy-1-naphthyl)-5-fluoro-2-methyl-pyrazolo[4,3-f]quinazolin-9-yl]-N,N-dimethyl-4,6,7,8-tetrahydropyrazolo[1,5-a][1,4]diazepine-2-carboxamide]
≤ 0.01 µM | ≤ 0.01 µM |  |  | CCc1c(F)ccc2cc(O)cc(-c3c(C)c4nc(OCC56CCCN5CCC6)nc(N5CCOCC(C)(O)C5)c4c4cn(C)nc34)c12 (stereo not shown) [Example 147, 4-[4-(8-ethyl-7-fluoro-3-hydroxy-1-naphthyl)-7-(1,2,3,5,6,7-hexahydropyrrolizin-8-ylmethoxy)-2,5-dimethyl-pyrazolo[4,3-f]quinazolin-9-yl]-6-methyl-1,4-oxazepan-6-ol]
≤ 0.01 µM | ≤ 0.01 µM |  |  | CCNC(=O)c1cc2n(n1)CCCN(c1nc(OC[C@@]34CCCN3C[C@H](F)C4)nc3cc(-c4cc(O)cc5ccc(F)c(CC)c45)c4nn(C)cc4c13)C2 [Example 21, N-ethyl-5-[4-(8-ethyl-7-fluoro-3-hydroxy-1-naphthyl)-2-methyl-7-[[(2R,8S)-2-fluoro-1,2,3,5,6,7-hexahydropyrrolizin-8-yl]methoxy]pyrazolo[4,3-f]quinazolin-9-yl]-4,6,7,8-tetrahydropyrazolo[1,5-a][1,4]diazepine-2-carboxamide]
≤ 0.01 µM | ≤ 0.01 µM |  |  | CCc1c(F)ccc2cc(O)cc(-c3c(C)c4nc(OC[C@@H]5CCN5C)nc(N5CCOCC(C)(O)C5)c4c4cn(C)nc34)c12 (stereo partly drawn) [Example 143, 4-[4-(8-ethyl-7-fluoro-3-hydroxy-1-naphthyl)-2,5-dimethyl-7-[[(2S)-1-methylazetidin-2-yl]methoxy]pyrazolo[4,3-f]quinazolin-9-yl]-6-methyl-1,4-oxazepan-6-ol]
≤ 0.01 µM | ≤ 0.01 µM |  |  | CCc1c(F)ccc2cc(O)cc(-c3cc4nc(OC[C@@]56CCCN5C[C@H](F)C6)nc(N5CCOCC(C)(O)C5)c4c4cn(C)nc34)c12 (stereo partly drawn) [Example 8, 4-[4-(8-ethyl-7-fluoro-3-hydroxy-1-naphthyl)-2-methyl-7-[[(2R,8S)-2-fluoro-1,2,3,5,6,7-hexahydropyrrolizin-8-yl]methoxy]pyrazolo[4,3-f]quinazolin-9-yl]-6-methyl-1,4-oxazepan-6-ol]
≤ 0.01 µM | ≤ 0.01 µM |  |  | CCc1c(F)ccc2cc(O)cc(-c3c(C)c4nc(OCC56CCCN5CCC6)nc(N5CCC[C@@](C)(O)C5)c4c4cn(C)nc34)c12 [Example 205, (3R)-1-[4-(8-ethyl-7-fluoro-3-hydroxy-1-naphthyl)-7-(1,2,3,5,6,7-hexahydropyrrolizin-8-ylmethoxy)-2,5-dimethyl-pyrazolo[4,3-f]quinazolin-9-yl]-3-methyl-piperidin-3-ol]
0.01 to 0.1 µM | 0.01 to 0.1 µM |  |  | CCc1c(F)ccc2cc(O)cc(-c3cc4nc(OCC5CCCN5C)nc(N5CCCOCC5)c4c4cn(C)nc34)c12 (stereo not shown) [Example 18, 5-ethyl-6-fluoro-4-[2-methyl-7-[(1-methylpyrrolidin-2-yl)methoxy]-9-(1,4-oxazepan-4-yl)pyrazolo[4,3-f]quinazolin-4-yl]naphthalen-2-ol]
≤ 0.01 µM | 0.01 to 0.1 µM |  |  | Cc1cc2[nH]ncc2c(-c2cc3nc(OC[C@@]45CCCN4C[C@H](F)C5)nc(N4CCCn5nc(C(=O)N(C)C)cc5C4)c3c3cn(C)nc23)c1C(F)(F)F [Example 84, 5-[7-[[(2R,8S)-2-fluoro-1,2,3,5,6,7-hexahydropyrrolizin-8-yl]methoxy]-2-methyl-4-[6-methyl-5-(trifluoromethyl)-1H-indazol-4-yl]pyrazolo[4,3-f]quinazolin-9-yl]-N,N-dimethyl-4,6,7,8-tetrahydropyrazolo[1,5-a][1,4]diazepine-2-carboxamide]
≤ 0.01 µM | 0.1 to 10 µM |  |  | CCc1c(F)ccc2cc(O)cc(-c3c(C)c4nc(OCC5(C#N)CCOC5)nc(N5CC6CCC(C5)N6)c4c4cn(C)nc34)c12 (stereo not shown) [Example 241, 3-[[9-(3,8-diazabicyclo[3.2.1]octan-3-yl)-4-(8-ethyl-7-fluoro-3-hydroxy-1-naphthyl)-2,5-dimethyl-pyrazolo[4,3-f]quinazolin-7-yl]oxymethyl]tetrahydrofuran-3-carbonitrile]
0.1 to 10 µM | 0.1 to 10 µM |  |  | CCc1c(F)ccc2cc(O)cc(-c3cc4nc(OC[C@@]56CCCN5C[C@H](F)C6)nc(N5CCCC6(CCC(O)C6)C5)c4c4cn(C)nc34)c12 (stereo partly drawn) [Example 200, 7-[4-(8-ethyl-7-fluoro-3-hydroxy-1-naphthyl)-2-methyl-7-[[(2R,8S)-2-fluoro-1,2,3,5,6,7-hexahydropyrrolizin-8-yl]methoxy]pyrazolo[4,3-f]quinazolin-9-yl]-7-azaspiro[4.5]decan-3-ol]
≤ 0.01 µM | ≤ 0.01 µM |  |  | CCc1c(F)ccc2cc(O)cc(-c3c(C)c4nc(OC[C@]5(C)CCCN5C)nc(N5CCOCC(C)(O)C5)c4c4cn(C)nc34)c12 (stereo partly drawn) [Example 148, 4-[4-(8-ethyl-7-fluoro-3-hydroxy-1-naphthyl)-2,5-dimethyl-7-[[(2S)-1,2-dimethylpyrrolidin-2-yl]methoxy]pyrazolo[4,3-f]quinazolin-9-yl]-6-methyl-1,4-oxazepan-6-ol]
0.1 to 10 µM | 0.1 to 10 µM |  |  | Cc1cc(N)nc(-c2cc3nc(OC[C@@]45CCCN4C[C@H](F)C5)nc(N4CCCn5nc(C(=O)N(C)C)cc5C4)c3c3cn(C)nc23)c1C(F)(F)F [Example 77, 5-[4-[6-amino-4-methyl-3-(trifluoromethyl)-2-pyridyl]-7-[[(2R,8S)-2-fluoro-1,2,3,5,6,7-hexahydropyrrolizin-8-cyl]methoxy]-2-methyl-pyrazolo[4,3-f]quinazolin-9-yl]-N,N-dimethyl-4,6,7,8-tetrahydropyrazolo[1,5-a][1,4]diazepine-2-carboxamide]
 |  | D (<49% inhibition at 10 μM) | D (<49% inhibition at 10 μM) | Cn1cc2c(n1)c(-c1ncc(F)c3sc(N)c(C#N)c13)cc1nc(OC[C@@]34CCCN3C[C@H](F)C4)nc(N3CCC[C@@](C)(O)C3)c12 [Example 106, 2-amino-7-fluoro-4-[2-methyl-7-[[(2R,8S)-2-fluoro-1,2,3,5,6,7-hexahydropyrrolizin-8-yl]methoxy]-9-[(3R)-3-hydroxy-3-methyl-1-piperidyl]pyrazolo[4,3-f]quinazolin-4-yl]thieno[3,2-c]pyridine-3-carbonitrile]
≤ 0.01 µM | ≤ 0.01 µM |  |  | CCc1c(F)ccc2cc(O)cc(-c3c(F)c4nc(OCC5(CN6CCC(CC#N)CC6)CC5)nc(N5CCOCC(C)(O)C5)c4c4cn(C)nc34)c12 (stereo not shown) [Example 225, 2-[1-[[1-[[4-(8-ethyl-7-fluoro-3-hydroxy-1-naphthyl)-5-fluoro-9-(6-hydroxy-6-methyl-1,4-oxazepan-4-yl)-2-methyl-pyrazolo[4,3-f]quinazolin-7-yl]oxymethyl]cyclopropyl]methyl]-4-piperidyl]acetonitrile]
0.1 to 10 µM | 0.1 to 10 µM |  |  | CCc1c(F)ccc2cc(O)cc(-c3c(F)c4nc(OCC5(CN6CCOC(C(F)(F)F)C6)CC5)nc(N5CCOCC(C)(O)C5)c4c4cn(C)nc34)c12 (stereo not shown) [Example 219, 4-[4-(8-ethyl-7-fluoro-3-hydroxy-1-naphthyl)-5-fluoro-2-methyl-7-[[1-[[2-(trifluoromethyl)morpholin-4-yl]methyl]cyclopropyl]methoxy]pyrazolo[4,3-f]quinazolin-9-yl]-6-methyl-1,4-oxazepan-6-ol]
 |  | D (<49% inhibition at 10 μM) | D (<49% inhibition at 10 μM) | Cn1ncc2c3c(N4CCCOCC4)nc(OC[C@@]45CCCN4C[C@H](F)C5)nc3cc(-c3cc(O)cc4ccccc34)c21 [Example 48, 4-[3-methyl-9-(1,4-oxazepan-4-yl)-7-[[(2R,8S)-2-fluoro-1,2,3,5,6,7-hexahydropyrrolizin-8-yl]methoxy]pyrazolo[4,3-f]quinazolin-4-yl]naphthalen-2-ol]
